We go through five compounds from patent US11311512B2, “Lymph directing prodrugs” (priority 2014, dated 2022).

For series [1] the following is noted: for Transport of total TST derivatives in lymph (% of dose): anaesthetised, mesenteric lymph-duct cannulated female SD rats, intraduodenal infusion 0-2 h, cumulative over 8 h; for Fold increase (compared with control group dosed with TU): lymphatic transport of total TST derivatives, female SD rats, intraduodenal infusion. On the procedure:
Lipid formulations containing the compound of interest were then administered to the animals, the lymph collected and drug concentrations in the lymph subsequently quantified.
Lipid-based formulations of the compounds of the invention or control compounds were prepared as previously described (Trevaskis, N. L. et al., Pharmaceutical Research, 2005, 22(11), 1863-1870). Briefly, approximately 2 mg of the compound (1 mg in the case of Compound 35 and Compound 1), 40 mg oleic acid and 25 mg Tween 80 were mixed in a glass vial until equilibrated (gentle heat (below 50° C.) may be applied for a short period).
[…] This was to eliminate the potential for the relatively high and variable levels of endogenous testosterone in male rats interfering with the quantification of exogenously dosed testosterone. Rats (240-320 g) were maintained on a standard diet and fasted overnight with free access to water prior to experiments. Anaesthetised rats were placed on a heated pad at 37° C. and cannulas were inserted into the duodenum (for formulation administration and rehydration), mesenteric lymph duct (for lymph collection) and carotid artery (for blood collection) as previously described (Edwards et al. Advanced Drug Delivery Reviews 2001, 50(1), 45-60). Post-surgery, rats were re-hydrated for 0.5 h via intraduodenal infusion of normal saline at 2.8 mL/h. The lipid formulations were infused into the duodenum at 2.8 mL/h for 2 h, after which the infusion was changed to 2.8 mL/h normal saline for the remainder of the experiment. Lymph was continuously collected for 6 to 8 h into pre-weighed Eppendorf tubes containing 10 μL of 1,000 IU/mL heparin. The collection tubes were changed hourly and lymph flow was measured gravimetrically. Aliquots of hourly lymph samples were stored at −80° C. prior to assay.
Drug concentration in lymph is expressed as total drug and includes free drug and drug associated with different glycerides. This is assayed by hydrolysis of lymph (to liberate drug from any re-esterified glycerides) prior to assessment of free drug.
FIG. 1 illustrates the cumulative lymphatic transport of total testosterone related derivatives (% of administered dose) versus time in anaesthetised mesenteric lymph duct cannulated female SD rats following intraduodenal infusion of formulations from 0 to 2 h. Each Formulation contained 2 mg of the exemplified compound or the control, testosterone undecanoate (TU), dispersed in 40 mg oleic acid, 25 mg Tween 80 and 5.6 ml PBS.

A short description of series [2]: Pharmacokinetic study in rats, testosterone plasma concentrations after oral gavage. The conditions noted are these: for AUC0-24 h fold increase compared with TU group / Tmax / AUC0-24 h / Cmax: testosterone in plasma, oral gavage; for AUC0-24 h fold increase compared with TU group: dose-normalized; for Tmax / AUC0-24 h / Cmax: conscious carotid artery cannulated SD female rats; for AUC0-24 h / Cmax: normalized to 2 mg/kg equivalent testosterone dose. On the procedure: In order to assess the oral bioavailability of the compounds of the invention, pharmacokinetic studies were conducted in rats and dogs. […] The rats were then allowed to regain consciousness and fasted overnight prior to the commencement of experiments with free access to water. […] The oral formulation of Compound 2 contained 3 mg of the compound, 20 mg oleic acid and 12.5 mg Tween 80 dispersed in 1 mL PBS. Blood samples were collected from the carotid artery cannula from 5 min prior to administration up to 24 h post-dosing and centrifuged at 5000 rpm for 5 min to separate plasma. […] Plasma samples were stored at −80° C. prior to assay by HPLC-MS-MS. In this case samples were assayed for free drug (i.e. non-glyceride associated drug) and were not hydrolysed prior to assay (as was the case with the lymph samples).
FIG. 12 illustrates dose-normalized testosterone plasma concentrations following oral gavage of formulations to conscious, carotid artery cannulated female SD rats. Formulations contained 1 mg of TU, or 2 mg of compounds of the invention containing testosterone dispersed in 40 mg oleic acid, 25 mg Tween 80 and 2 ml PBS. Doses are normalized to a 2 mg/kg equivalent dose of testosterone. Data are shown as mean±SEM for all groups (n=4 or 3 for each group). The embedded figure is the plot of the dose-normalized plasma AUC0-24h (nmol×h/L) of testosterone in the form of a bar graph.

In series [3] the test system is porcine pancreatic lipase. The experiment in a line: In vitro hydrolysis by porcine pancreatic lipase. In kind it is in vitro ADME. The conditions noted are these: 37° C., simulated intestinal micellar solution pH 6.5, up to 180 min. On the procedure: To provide for higher throughput of experiments, unless otherwise stated, in vitro hydrolysis of TST related compounds was performed via incubation with porcine pancreatic lipase. This provides a more reproducible source of pancreatic enzymes, facilitates enhanced experimental throughput and is also a greater challenge than collected rat enzymes (since enzyme activity in rat intestinal fluid is low). Briefly, pancreatic lipase solution was prepared prior to the hydrolysis experiment by dispersion of 1 g porcine pancreatin in 5 ml of lipolysis buffer and 16.9 μl of 5M NaOH. The suspension was mixed well and centrifuged at 3500 rpm for 15 minutes at 5° C. to provide a supernatant. An amount of 1000 ml of lipolysis buffer was prepared with 0.474 g of tris-maleate (2 mM), 0.206 g of CaCl2.H2O (1.4 mM) and 8.775 g of NaCl (150 mM) adjusted with NaOH to pH 6.5. To assess the potential for prodrug hydrolysis in the intestine, 20 μl of prodrug solution (1 mg/ml dissolved in acetonitrile), 900 μl of simulated intestinal micellar solution [prepared with 0.783 g of NaTDC (3 mM) and 0.291 g of phosphatidyl choline (0.75 mM) in 500 ml lipolysis buffer] and 100 μl of enzyme solution were incubated at 37° C. 20 μl samples of the incubation solution were taken at 0, 5, 10, 15, 30, 60, 90, 120 and 180 minutes post incubation and added to 180 μl of ACN to stop lipolysis. The mixture was vortexed and centrifuged at 5000 rpm for 5 minutes to precipitate proteins prior to analysis. The supernatant was analysed by HPLC-MS for residual compound concentrations, and the potential products of compound hydrolysis were analysed.
On incubation with digestive enzymes the monoglycerides forms of the prodrugs are formed very rapidly. The stability in simulated intestinal conditions is therefore better assessed by the stability of the monoglycerides form that is generated by the initial digestion process. The monoglycerides form must remain intact to be absorbed and re-esterified in the enterocyte prior to entry into the lymphatics. […] This is consistent with the increase in lymphatic transport of Compound 18 when compared to Compound 10, and the high extent of lymphatic transport of Compound 16 in FIG. 4.

Take `CCCCCCCCCCCCCCCC(=O)OCC(COC(=O)CCCCCCCCCCCCCCC)OC(=O)CCCCC(=O)O[C@H]1CC[C@H]2[C@@H]3CCC4=CC(=O)CC[C@]4(C)[C@H]3CC[C@]12C` [Compound 11]: in series [1], the “Transport of total TST derivatives in lymph (% of dose)” value is given as 17.0 ± 1.6 % of dose and the “Fold increase (compared with control group dosed with TU)” value was determined as 9.0 fold. In addition, the “systemic exposure of parent testosterone (dose-normalised plasma AUC0-24h), fold greater than after Compound 41 or Compound 10” value in series [2] (oral administration, SD female rats) was found to be 10 fold. In series [2] (SD female rats), the “AUC0-24 h fold increase compared with TU group” value (shortened to “AUC0-24 h fold increase”) was 12.4 fold. For the same compound, in series [2], the Tmax stood at 1.3 ± 0.1 h, the AUC0-24 h came out at 0.0842 ± 0.0093 µM·h and the Cmax turned out to be 69.9 ± 8.2 nM. For the same compound, in series [3], the “stability of the monoglyceride form during in vitro incubation with porcine pancreatic lipase” value (shortened to “stability”) is “not highly stable”.

Regarding `CCCCCCCCCCCCCCCC(=O)OCC(COC(=O)CCCCCCCCCCCCCCC)OC(=O)C(C)CCCCCCCC(=O)O[C@H]1CC[C@H]2[C@@H]3CCC4=CC(=O)CC[C@]4(C)[C@H]3CC[C@]12C` (stereo partly drawn) [Compound 16], in series [1], the “Transport of total TST derivatives in lymph (% of dose)” value is reported as 23.2 ± 2.3 % of dose and the “Fold increase (compared with control group dosed with TU)” value was 12.3 fold. In addition, the “AUC0-24 h fold increase” value in series [2] (SD female rats) is listed as 15.8 fold. In addition, in series [2], the time to peak (Tmax) is recorded as 1.3 ± 0.1 h, the AUC0-24 h was 0.1076 ± 0.014 µM·h and the Cmax was 77 ± 14.2 nM. The “stability” value in series [3] is listed as “significantly stabilised the monoglyceride intermediates”.

As for `CCCCCCCCCCCCCCCC(=O)OCC(COC(=O)CCCCCCCCCCCCCCC)OC(=O)CCCCC(=O)OCO[C@H]1CC[C@H]2[C@@H]3CCC4=CC(=O)CC[C@]4(C)[C@H]3CC[C@]12C` [Compound 21, 1,3-Bis(palmitoyloxy)propan-2-yl (((8R,9S,10R,13S,14S,17S)-10,13-dimethyl-3-oxo-2,3,6,7-8,9,10,11,12,13,14-15,16,17-tetradecahydro-1H-cyclopenta[a]phenanthren-17-yl)oxy)methyl adipate], the “AUC0-24 h fold increase” value in series [2] (SD female rats) was determined as 44.0 fold. For the same compound, in series [2], the Tmax was determined as 0.7 ± 0.2 h, the AUC0-24 h turned out to be 0.2994 ± 0.1001 µM·h and the Cmax is 232 ± 63.2 nM. The “stability” value in series [3] was “lower than that of Compound 11”.

With `CCCCCCCCCCCCCCCC(=O)OCC(COC(=O)CCCCCCCCCCCCCCC)OC(=O)CC(C)CC(=O)Oc1cc(C)cc(C)c1C(C)(C)CC(=O)O[C@H]1CC[C@H]2[C@@H]3CCC4=CC(=O)CC[C@]4(C)[C@H]3CC[C@]12C` (stereo partly drawn) [Compound 25], in series [2] (SD female rats), the “AUC0-24 h fold increase” value is 58.5 fold. In addition, in series [2], the time of peak concentration (Tmax) turned out to be 0.9 ± 0.1 h, the AUC0-24 h was determined as 0.3992 ± 0.0432 µM·h and the Cmax was 419 ± 63.3 nM. In series [3], the “stability” value was “remarkably stable”.

As to `CCCCCCCCCCCCCCCC(=O)OCC(COC(=O)CCCCCCCCCCCCCCC)OC(=O)CC(C)CCCCCCC(=O)Oc1cc(C)cc(C)c1C(C)(C)CC(=O)O[C@H]1CC[C@H]2[C@@H]3CCC4=CC(=O)CC[C@]4(C)[C@H]3CC[C@]12C` (stereo partly drawn) [Compound 27], the “AUC0-24 h fold increase” value in series [2] (SD female rats) is 106.4 fold. For the same compound, in series [2], the Tmax amounted to 1.5 ± 0.5 h, the AUC0-24 h came out at 0.7238 ± 0.0905 µM·h and the Cmax amounted to 428 ± 97.8 nM. Besides, in series [3], the “stability” value is reported as “remarkably stable”.
